From article PMC2824924 (Bioorganic & medicinal chemistry, 2009) come the findings set out here.

Usually IC50 stands for the point on the concentration scale where inhibition reaches its midpoint.

One series has as its system Vero cells. Briefly: Cytotoxicity against Vero cells. In kind it is cell-based, African monkey.
The subject of series [1] is National Cancer Institute's 60 cultured human tumor cell lines. Briefly: NCI 60 human tumor cell line screen. The note with it: mean graph midpoint; concentration of total growth inhibition.
The next series deals with Cryptococcus neoformans. Briefly: Antimicrobial assay, antifungal. The note with it: compared to control drug amphotericin B.
Series [2] concerns Plasmodium falciparum W2 clone (chloroquine-resistant). Briefly: In vitro antimalarial assay. Format: cell-based. The settings on record: W2, 72 h, read-out: Plasmodium falciparum W2 clone IC50.
Series [3] relates to Plasmodium falciparum D6 clone (chloroquine-sensitive). The series is described as follows: In vitro antimalarial assay. Format: cell-based. The settings on record: D6, 72 h, read-out: Plasmodium falciparum D6 clone IC50.

In the case of `C[C@@H]1CC[C@H]2[C@@H](C)C(=O)O[C@@H]3O[C@@]4(C)CC[C@@H]1[C@]32OO4` [Compound 1, Artemisinin, reference compound], in the series on Vero cells (African monkey, 48 h), the “Cytotoxicity Vero TC50” value is > 1,686 nM.

Take `C[C@H]1[C@@H](O)O[C@@H]2O[C@@]3(C)CC[C@H]4[C@H](C)CC[C@@H]1[C@@]24OO3` [Compound 2, Dihydroartemisinin, reference compound]: the “Cytotoxicity Vero TC50” value with Vero cells (African monkey, 48 h) was 1,407 nM.

`CC1=CO[C@@H]2O[C@]3(C)CC[C@H]4[C@H](C)CC[C@@H]1[C@@]24OO3` [Compound 3, Anhydrodihydroartemisinin, reference compound]: the “Cytotoxicity Vero TC50” value in the series with Vero cells (African monkey, 48 h) is on record as > 1,787 nM.

Turning to `C[C@H]1[C@@H](OCC(=O)CO[C@H]2O[C@@H]3O[C@@]4(C)CC[C@H]5[C@H](C)CC[C@@H]([C@H]2C)[C@@]35OO4)O[C@@H]2O[C@@]3(C)CC[C@H]4[C@H](C)CC[C@@H]1[C@@]24OO3` [Compound 4], the “Cytotoxicity Vero TC50” value with Vero cells (African monkey, 48 h) came out at 257 nM.

As for `C[C@H]1[C@@H](OCC(O)CO[C@H]2O[C@@H]3O[C@@]4(C)CC[C@H]5[C@H](C)CC[C@@H]([C@H]2C)[C@@]35OO4)O[C@@H]2O[C@@]3(C)CC[C@H]4[C@H](C)CC[C@@H]1[C@@]24OO3` (stereo partly shown) [Compound 5], the “Cytotoxicity Vero TC50” value in the series with Vero cells (African monkey, 48 h) was determined as 384 nM.

On to `C[C@H]1[C@@H](OCc2cc(O)cc(O[C@H]3O[C@@H]4O[C@@]5(C)CC[C@H]6[C@H](C)CC[C@@H]([C@H]3C)[C@@]46OO5)c2)O[C@@H]2O[C@@]3(C)CC[C@H]4[C@H](C)CC[C@@H]1[C@@]24OO3` [Compound 6], for which the “Cytotoxicity Vero TC50” value in the series with Vero cells (African monkey, 48 h) is reported as > 7,075 nM. The “MG_MID TGI” value in series [1] is 2820 nM.

`C[C@H]1[C@@H](Oc2cccc(N[C@@H]3[C@H](C)O[C@@H]4O[C@@]5(C)CC[C@H]6[C@H](C)CC[C@@H]3[C@@]46OO5)c2)O[C@@H]2O[C@@]3(C)CC[C@H]4[C@H](C)CC[C@@H]1[C@@]24OO3` [Compound 7]: in the series on Vero cells (African monkey, 48 h), the “Cytotoxicity Vero TC50” value is > 7,417 nM. The “In vitro antifungal activity (in words)” value with Cryptococcus neoformans was “enhanced activity compared to the control drug, amphotericin B”.

On to `C[C@H]1[C@@H](OC/C=C\CO[C@H]2O[C@@H]3O[C@@]4(C)CC[C@H]5[C@H](C)CC[C@@H]([C@H]2C)[C@@]35OO4)O[C@@H]2O[C@@]3(C)CC[C@H]4[C@H](C)CC[C@@H]1[C@@]24OO3` [Compound 8], for which the “Cytotoxicity Vero TC50” value in the series on Vero cells (African monkey, 48 h) stood at 709 nM.

As for `C=C[C@@H](CO[C@H]1O[C@@H]2O[C@@]3(C)CC[C@H]4[C@H](C)CC[C@@H]([C@H]1C)[C@@]24OO3)O[C@H]1O[C@@H]2O[C@@]3(C)CC[C@H]4[C@H](C)CC[C@@H]([C@H]1C)[C@@]24OO3` [Compound 9], in the series on Vero cells (African monkey, 48 h), the “Cytotoxicity Vero TC50” value is recorded as 773 nM.

Turning to `C[C@H]1[C@@H](OCC[C@H](O)CO[C@H]2O[C@@H]3O[C@@]4(C)CC[C@H]5[C@H](C)CC[C@@H]([C@H]2C)[C@@]35OO4)O[C@@H]2O[C@@]3(C)CC[C@H]4[C@H](C)CC[C@@H]1[C@@]24OO3` [Compound 10], in the series on Vero cells (African monkey, 48 h), the “Cytotoxicity Vero TC50” value is recorded as > 7,452 nM.

Turning to `C[C@H]1[C@@H](OC[C@@H](O)[C@@H](O)CO[C@H]2O[C@@H]3O[C@@]4(C)CC[C@H]5[C@H](C)CC[C@@H]([C@H]2C)[C@@]35OO4)O[C@@H]2O[C@@]3(C)CC[C@H]4[C@H](C)CC[C@@H]1[C@@]24OO3` [Compound 11], the “Cytotoxicity Vero TC50” value with Vero cells (African monkey, 48 h) is > 7,270 nM.

Consider `C[C@H]1[C@@H](O[C@@H](CO[C@H]2O[C@@H]3O[C@@]4(C)CC[C@H]5[C@H](C)CC[C@@H]([C@H]2C)[C@@]35OO4)[C@H](O)CO)O[C@@H]2O[C@@]3(C)CC[C@H]4[C@H](C)CC[C@@H]1[C@@]24OO3` [Compound 12], for which, in the series with Vero cells (African monkey, 48 h), the “Cytotoxicity Vero TC50” value is listed as 825 nM. Further, in the series with Cryptococcus neoformans, the “In vitro antifungal activity (in words)” value was “enhanced activity compared to the control drug, amphotericin B”.

With `C[C@H]1[C@@H](OC[C@@H]2O[C@@H]2CO[C@H]2O[C@@H]3O[C@@]4(C)CC[C@H]5[C@H](C)CC[C@@H]([C@H]2C)[C@@]35OO4)O[C@@H]2O[C@@]3(C)CC[C@H]4[C@H](C)CC[C@@H]1[C@@]24OO3` [Compound 13], in the series on Vero cells (African monkey, 48 h), the “Cytotoxicity Vero TC50” value is given as > 7,475 nM.

As to `C[C@H]1[C@@H](OCC(CO[C@H]2O[C@@H]3O[C@@]4(C)CC[C@H]5[C@H](C)CC[C@@H]([C@H]2C)[C@@]35OO4)OS(C)(=O)=O)O[C@@H]2O[C@@]3(C)CC[C@H]4[C@H](C)CC[C@@H]1[C@@]24OO3` (stereo partly shown) [Compound 14], the “Cytotoxicity Vero TC50” value in the series with Vero cells (African monkey, 48 h) was 6,403 nM.

Consider `C[C@H]1[C@@H](OCC(=O)CO)O[C@@H]2O[C@@]3(C)CC[C@H]4[C@H](C)CC[C@@H]1[C@@]24OO3` [Compound 15], for which, in the series on Vero cells (African monkey, 48 h), the “Cytotoxicity Vero TC50” value is listed as > 13,355 nM.

For the compound `C[C@H]1[C@@H](OCc2cc(O)cc(O)c2)O[C@@H]2O[C@@]3(C)CC[C@H]4[C@H](C)CC[C@@H]1[C@@]24OO3` [Compound 16], in the series on Vero cells (African monkey, 48 h), the “Cytotoxicity Vero TC50” value is on record as > 11,711 nM.

Take `C[C@H]1[C@@H](OC/C=C\CO)O[C@@H]2O[C@@]3(C)CC[C@H]4[C@H](C)CC[C@@H]1[C@@]24OO3` [Compound 17]: the “Cytotoxicity Vero TC50” value in the series with Vero cells (African monkey, 48 h) was > 13,430 nM. The “In vitro antifungal activity (in words)” value in the series with Cryptococcus neoformans is listed as “enhanced activity compared to the control drug, amphotericin B”.

On to `C[C@H]1[C@@H](OCC[C@@H](CO[C@H]2O[C@@H]3O[C@@]4(C)CC[C@H]5[C@H](C)CC[C@@H]([C@H]2C)[C@@]35OO4)O[C@H]2O[C@@H]3O[C@@]4(C)CC[C@H]5[C@H](C)CC[C@@H]([C@H]2C)[C@@]35OO4)O[C@@H]2O[C@@]3(C)CC[C@H]4[C@H](C)CC[C@@H]1[C@@]24OO3` [Compound 18], for which the “Cytotoxicity Vero TC50” value in the series on Vero cells (African monkey, 48 h) is given as 5,259 nM.

As for `CCN(CC)CCCC(C)Nc1ccnc2cc(Cl)ccc12` (stereo not shown) [chloroquine], in the series with Vero cells (Table 2, concentration toxic to 50% of the cells), the “Cytotoxicity Vero TC50” value was > 14,881 nM. Moreover, the figures for the IC50 in series [2] and in series [3] were 378 nM and 41.6 nM, respectively.
